# Reference: PMC2779488, “Integrating In Silico and In Vitro Analysis of Peptide Binding Affinity to HLA-Cw*0102: A Bioinformatic Approach to the Prediction of New Epitopes” (PLoS ONE, 2009)
# No end group written: not given here.
# Biological target: HLA-Cw*0102 (Homo sapiens, UniProt P10321, A176E/A330V/A35S/A97T/C350S/D114A/D33F/L171W/L180R/L218V/M285V/M309V/M331V/P208H/Q277E/Q291P/R121W/R243W/R30K/S123C/S140Y/S297R/T329A/T363A/V272M/V319A)
# Experiment: FACS-based MHC stabilisation assay (peptide binding, T2 cells)
# Details: not given
Compound,EC50,pBL50(exp),pBL50 / binder class as quoted in text
ILRRPTSPV [I L R R P T S P V],7.96 µM,,
SLEECDSEL [S L E E C D S E L],375 µM,,
PQSQGVVES,> 1000 µM,,
CC(C)[C@H](NC(=O)[C@H](C)N)C(=O)N[C@@H](CC(=O)O)C(=O)N[C@@H](C)C(=O)N[C@@H](CC(=O)O)C(=O)N[C@@H](CC(=O)O)C(=O)N[C@@H](CO)C(=O)N[C@@H](Cc1c[nH]cn1)C(=O)N[C@@H](Cc1ccccc1)C(=O)O [A V D A D D S H F],> 1000 µM,,
VVPRRKAKI,> 1000 µM,,
NCPERIATL,0.201 µM,,
FPISPIETV,> 1000 µM,,
EQFGNKTIV,> 1000 µM,,
ADDSHFVSI [A D D S H F V S I],> 1000 µM,,
IVIWGKTPK,> 1000 µM,,
VIPMFSALS [VIPMFSALS],2.45 µM,,
PVPLQLPPL,3.16 µM,,
NSTWSTEGS,> 1000 µM,,
KATSPIVPS [K A T S P I V P S],> 1000 µM,,
LITPKKIKP,> 1000 µM,,
"I L S P L T K G I: initial-set nonamer, Table 1 No. 13",,3.061,
NYTSLIHSL,> 1000 µM,,
VDADDSHFV [V D A D D S H F V],> 1000 µM,,
DADDSHFVS [D A D D S H F V S],> 1000 µM,,
IVRMYSPTS,> 1000 µM,,
ELIRTVRLI,> 1000 µM,,
LSPLTKGIL [L S P L T K G I L],3.79 µM,,
LVSAGIRKV,> 1000 µM,,
ATSPIVPSL [A T S P I V P S L],4.15 µM,,
ILSRSKESV [I L S R S K E S V],,,non-binder

# Same assay, conditions: Table 3 newly-designed peptides; T2 cells, peptide 200-0.04 µM, 16 h 37°C, mAb VP6G3, flow cytometry; read-out: pBL50 (exp) (converted)
row,Compound,EC50
1,NCPERIITA,0.257 µM
2,ACPERIITL,0.185 µM

# Same assay, conditions: Table 4 HIV-1 peptides; T2 cells, peptide 200-0.04 µM, 16 h 37°C, mAb VP6G3, flow cytometry; read-out: pBL50 (exp) (converted)
row,Compound,EC50
1,ELQAIYLAL [ELQAIYLAL],1.25 µM
2,LQILAIVAL [LQILAIVAL],0.766 µM
3,LLRWGFTTP,2.05 µM
4,CAPAGFAIL,0.00987 µM
5,LTEEKIKAL [LTEEKIKAL],5.19 µM
6,IVTRIVELL,1.12 µM
7,FQSSMTKIL,0.701 µM
8,RVRQGYSPL,0.0866 µM

# Same assay, conditions: pBL50(exp)
row,Compound,EC50
1,HMPDVGCIL,0.178 µM
2,FMPIMKNEV,0.676 µM
3,EQPERYESV,0.132 µM
4,NCPERAITL,0.244 µM
5,ECPQGITPV,0.109 µM
6,LTSPDVGLL [L T S P D V G L L],27.4 µM
7,LSPPKKKDL [L S P P K K K D L],> 1000 µM
8,NAPERIITL,0.00314 µM
9,HLPETKFSE [H L P E T K F S E],> 1000 µM
10,NCPERIITL,0.0634 µM
11,VRPMRQWPL,3.8 µM
12,KSPLDIVNL,1.91 µM
13,LGPEKLQYL,0.151 µM
14,SWPMQFDAL [SWPMQFDAL],0.269 µM
15,VAPQLTFGL,0.0162 µM
16,WAPHTDTSL,0.0126 µM
17,MQPSRGKTL,0.17 µM
18,IPEPAHAYA [I P E P A H A Y A],> 1000 µM
19,GADAEKPFY [G A D A E K P F Y],> 1000 µM
20,LLKLASPEL [L L K L A S P E L],> 1000 µM

row,Compound,EC50
1,WGPGIIWAL [WGPGIIWAL],3.63 µM
2,DLLTSPDVG [D L L T S P D V G],> 1000 µM
3,AQPQTTTPL [A Q P Q T T T P L],0.122 µM
4,TDPWFHRSL,0.339 µM
5,ITPTGTHPL [I T P T G T H P L],0.283 µM
6,YMPTASCDL,0.0129 µM
7,ILSPRSKES [I L S P R S K E S],292 µM
8,PLPSQAMDD [P L P S Q A M D D],> 1000 µM
9,CSCC[C@H](NC(=O)[C@H](C)NC(=O)[C@H](CCC(N)=O)NC(=O)[C@H](CO)NC(=O)[C@@H]1CCCN1C(=O)[C@@H](N)CC(C)C)C(=O)N[C@@H](CC(=O)O)C(=O)N[C@@H](CC(=O)O)C(=O)N[C@@H](CC(C)C)C(=O)O [L P S Q A M D D L],> 1000 µM
10,NCPEAIITL,0.193 µM
11,ILSPRSESV [I L S P R S E S V],2.62 µM
12,AAPAYSRAL [A A P A Y S R A L],1.77 µM
13,VAPWNSLSL [V A P W N S L S L],0.703 µM
14,LSPRSKESV [L S P R S K E S V],0.91 µM
15,PLSPPKKKD [P L S P P K K K D],10.1 µM
16,ILSPSKESV [I L S P S K E S V],11.4 µM
17,EAPMWDHWL,0.49 µM
18,CMPDWLDRL,0.331 µM
19,ADAEKPFYV [A D A E K P F Y V],> 1000 µM
20,CAPREPHVV,0.38 µM

row,Compound,EC50
1,HNPGIATPV,0.661 µM
2,CC[C@H](C)[C@H](N)C(=O)N[C@@H](CC(C)C)C(=O)N[C@@H](CCCCN)C(=O)N[C@@H](CCC(=O)O)C(=O)N1CCC[C@H]1C(=O)N[C@H](C(=O)N[C@@H](Cc1cnc[nH]1)C(=O)NCC(=O)N[C@H](C(=O)O)C(C)C)C(C)C [I L K E P V H G V],> 1000 µM
3,CC(C)C[C@H](NC(=O)[C@H](C)NC(=O)[C@@H]1CCCN1C(=O)[C@H](Cc1ccc(O)cc1)NC(=O)[C@H](CC(N)=O)NC(=O)CNC(=O)[C@@H]1CCCN1C(=O)[C@H](C)NC(=O)[C@@H](N)Cc1ccccc1)C(=O)O [F A P G N Y P A L],0.189 µM
4,ILSPRKESV [I L S P R K E S V],17.2 µM
5,NEPQRIEPL,0.0962 µM
6,WRPDVNMQL,2.88 µM
7,LLTSPDVGL [L L T S P D V G L],11.7 µM
8,NCPARIITL,0.114 µM
9,NCAERIITL,0.434 µM
10,NCPERIIAL [NCPERIIAL],0.141 µM
11,QYPKGDAWV,> 1000 µM
12,FAPYNKPSL [F A P Y N K P S L],0.611 µM
13,LPETKFSEL [L P E T K F S E L],6.37 µM
14,EFPWVFIEL,0.355 µM
15,GIPEPAHAY [G I P E P A H A Y],> 1000 µM
16,NCPEGYTSL,0.0724 µM
17,NAPWAVTSL [N A P W A V T S L],0.142 µM
18,YMTPSSRPL [Y M T P S S R P L],> 1000 µM
19,ILSRSKESV [I L S R S K E S V],> 1000 µM
20,YAQPQTTTP [Y A Q P Q T T T P],5.96 µM

# Same assay, conditions: pBL50 / binder class as quoted in text
row,Compound,EC50
1,ILSPSKESV [peptide 17],1 to 31.6 µM
